Common to all, as to assay: Thymidylate Synthase (TS) Assay
What all share (details): pH 7.4; 20 °C

For test [1], the target named is T1, Thymidylate synthase (Lacticaseibacillus casei, UniProt P00469).
T1 sequence (P00469 whole entry): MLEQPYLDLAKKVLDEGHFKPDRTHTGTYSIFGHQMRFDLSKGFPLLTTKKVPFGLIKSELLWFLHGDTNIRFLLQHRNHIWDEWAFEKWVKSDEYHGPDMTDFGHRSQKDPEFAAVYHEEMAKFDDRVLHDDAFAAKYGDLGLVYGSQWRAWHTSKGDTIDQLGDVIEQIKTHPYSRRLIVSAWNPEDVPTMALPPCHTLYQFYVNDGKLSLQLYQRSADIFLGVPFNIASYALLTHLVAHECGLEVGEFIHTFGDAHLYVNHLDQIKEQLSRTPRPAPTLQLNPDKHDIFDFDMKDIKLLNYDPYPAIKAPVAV
Here is the method: (§1) TS was assayed spectrophotometrically in the reaction buffer solution containing (6R, 6S)-5, 10-CH2H4folate. The reaction was initiated by the addition of an amount of enzyme yielding a change in absorbance at 340 nm of 0.016/min in the absence of inhibitor. Ki values were obtained from the linear least-squares fit of the residual activity as a function of inhibitor concentration, using suitable equations for competitive inhibition.

In test [2] the target is Thymidylate synthase (Escherichia coli (strain K12), UniProt P0A884). Here is the method:
as §1

The target of test [3] is Thymidylate synthase (Homo sapiens, UniProt P04818). Here is the method:
as §1

In test [4] the target is T2, Thymidylate synthase (Pneumocystis carinii, UniProt P13100).
T2 sequence (P13100 whole entry): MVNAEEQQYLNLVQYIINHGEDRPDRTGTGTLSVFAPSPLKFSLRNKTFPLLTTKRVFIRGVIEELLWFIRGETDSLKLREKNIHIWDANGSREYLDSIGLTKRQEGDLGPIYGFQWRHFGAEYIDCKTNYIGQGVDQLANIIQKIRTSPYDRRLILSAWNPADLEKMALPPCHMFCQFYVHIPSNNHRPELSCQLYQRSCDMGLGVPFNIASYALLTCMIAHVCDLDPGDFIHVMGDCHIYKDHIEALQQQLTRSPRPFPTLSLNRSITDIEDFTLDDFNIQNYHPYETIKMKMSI
Here is the method:
as §1

In test [5] the target is T3, Thymidylate synthase (Cryptococcus neoformans var. neoformans serotype D (strain B-3501A), UniProt P0CS13).
T3 sequence (P0CS13 whole entry): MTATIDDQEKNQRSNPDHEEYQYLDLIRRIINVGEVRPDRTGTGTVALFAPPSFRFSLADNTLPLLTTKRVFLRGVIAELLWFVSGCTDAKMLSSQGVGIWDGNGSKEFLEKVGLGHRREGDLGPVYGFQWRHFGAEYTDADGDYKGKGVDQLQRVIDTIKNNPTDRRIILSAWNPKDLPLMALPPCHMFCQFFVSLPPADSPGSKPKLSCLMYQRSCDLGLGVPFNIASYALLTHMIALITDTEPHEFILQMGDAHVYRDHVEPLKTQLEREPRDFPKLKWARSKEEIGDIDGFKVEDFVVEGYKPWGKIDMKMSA
Here is the method:
as §1

Chain of Thymidylate synthase (Homo sapiens, UniProt P04818) (P04818 whole entry): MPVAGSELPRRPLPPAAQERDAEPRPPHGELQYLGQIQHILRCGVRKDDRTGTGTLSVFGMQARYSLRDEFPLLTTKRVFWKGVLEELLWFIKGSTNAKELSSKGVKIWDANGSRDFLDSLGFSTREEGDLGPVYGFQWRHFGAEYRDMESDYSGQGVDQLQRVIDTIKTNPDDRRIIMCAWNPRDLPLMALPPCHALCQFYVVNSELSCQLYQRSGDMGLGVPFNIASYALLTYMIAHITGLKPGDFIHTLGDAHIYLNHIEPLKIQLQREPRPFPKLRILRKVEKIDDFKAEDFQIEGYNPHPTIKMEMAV
Chain of Thymidylate synthase (Escherichia coli (strain K12), UniProt P0A884) (P0A884 whole entry): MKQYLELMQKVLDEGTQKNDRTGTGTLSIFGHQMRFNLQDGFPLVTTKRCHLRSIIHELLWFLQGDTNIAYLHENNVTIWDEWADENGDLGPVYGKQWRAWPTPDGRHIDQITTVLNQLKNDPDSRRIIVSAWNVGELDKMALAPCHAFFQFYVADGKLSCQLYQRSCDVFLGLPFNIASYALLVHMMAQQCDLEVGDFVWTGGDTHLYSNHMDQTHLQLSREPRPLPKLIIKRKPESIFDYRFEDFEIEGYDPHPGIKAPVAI

For the compound `O=C1OC(c2ccc(O)c(Br)c2)(c2ccc(O)c(Br)c2)c2cccc3c(Cl)ccc1c23` [4,4-bis(3-bromo-4-hydroxyphenyl)-10-chloro-3-oxatricyclo[7.3.1.0^{5,13}]trideca-1(12),5(13),6,8,10-pentaen-2-one], the Ki on Thymidylate synthase [1] was 0.8 µM; on Thymidylate synthase [2], 4.1 µM; at Thymidylate synthase [3], greater than 245 µM; on Thymidylate synthase [4], 28 µM; at Thymidylate synthase [5] it was 4.1 µM.

The values above are taken from BindingDB's records for doi:10.1107/S0907444905022638 (University of California San Francisco, 2005).
